Results on nine compounds are retold here after patent publication US20220041681A1 (MEDIMMUNE LIMITED, priority 2016, published 2022).

Several values for one entry are separate records, joined by “and”; a condition that tells them apart may be missing. Equal values may be shown once. Numbered stars: 1 amine (or outer) side, 2 acyl side, 3 side chain; on linkers, the order of the positions; unused ones are H or OH. Side chains are listed from the residue outwards. Peptide text beside a SMILES is read from it. * marks the point of attachment. γGlu = O=C(O)[C@H](CCC(=O)[*:2])N[*:1]; Palmitoyl = CCCCCCCCCCCCCCCC(=O)*

Data set [1] is described as follows: frozen blank plasma from rat. Conditions: 37° C., up to 48 hours.
For another data set, the target named is T1, Human GIPr (Homo sapiens, UniProt P48546).
T1 sequence (P48546 22-466): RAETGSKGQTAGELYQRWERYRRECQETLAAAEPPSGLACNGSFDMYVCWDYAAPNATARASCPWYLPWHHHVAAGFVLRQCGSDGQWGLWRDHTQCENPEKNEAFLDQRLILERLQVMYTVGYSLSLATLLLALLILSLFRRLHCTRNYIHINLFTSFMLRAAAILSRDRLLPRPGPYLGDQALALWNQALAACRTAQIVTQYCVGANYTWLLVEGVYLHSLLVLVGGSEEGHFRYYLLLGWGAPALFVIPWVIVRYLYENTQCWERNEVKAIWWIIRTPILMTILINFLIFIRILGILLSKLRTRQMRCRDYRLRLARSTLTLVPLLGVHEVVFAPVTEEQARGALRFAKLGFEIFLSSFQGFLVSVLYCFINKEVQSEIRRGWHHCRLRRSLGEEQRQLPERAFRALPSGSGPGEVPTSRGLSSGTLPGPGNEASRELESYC
Description: cAMP activity assay (assay 1) in assay medium. Conditions: Table 4, additional peptides, read-out: hGIPR EC50. The class given is cell-based.

In data set [2] the target is T2, Human GlucR (Homo sapiens, UniProt P47871).
T2 construct: expressed in transfected cells
T2 sequence (P47871 26-477): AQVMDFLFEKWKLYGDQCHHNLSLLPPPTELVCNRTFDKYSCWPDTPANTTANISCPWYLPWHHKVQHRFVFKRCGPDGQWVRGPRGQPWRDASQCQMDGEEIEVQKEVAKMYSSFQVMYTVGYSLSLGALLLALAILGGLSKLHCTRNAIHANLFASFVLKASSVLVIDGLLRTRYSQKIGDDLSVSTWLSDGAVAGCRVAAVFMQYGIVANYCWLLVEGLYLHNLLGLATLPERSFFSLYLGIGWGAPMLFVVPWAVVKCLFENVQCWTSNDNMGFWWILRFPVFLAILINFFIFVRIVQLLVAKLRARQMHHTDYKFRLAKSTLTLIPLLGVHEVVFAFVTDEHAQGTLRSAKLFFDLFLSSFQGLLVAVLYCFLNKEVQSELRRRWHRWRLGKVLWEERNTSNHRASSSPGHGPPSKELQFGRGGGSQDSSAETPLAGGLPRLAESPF
Description: cAMP activity assay (assay 1) in assay medium. The class given is cell-based. As to conditions: Table 4, additional peptides, read-out: hGlucR EC50.
Description: (§2) All sample dilutions were made in duplicate.
(§3) A frozen cryo-vial of cells expressing the receptor of interest was thawed rapidly in a water-bath, transferred to pre-warmed assay media and spun at 240×g for 5 minutes. Cells were re-suspended in assay media at an optimized concentration (e.g. hGCGR cells at 1×10^5 cells/ml, hGLP-1R and hGIPR cells at 0.5×10^5 cells/ml).
(§4) To this, 5 μL cell suspension was added and the plates incubated at room temperature for 30 minutes.
(§5) cAMP levels were measured using a commercially available cAMP dynamic 2 HTRF kit (Cisbio, Cat #62AM4PEJ), following the two step protocol as per manufacturer's recommendations. In brief; anti-cAMP cryptate (donor fluorophore) and cAMP-d2 (acceptor fluorophore) were made up separately by diluting each 120 in conjugate & lysis buffer provided in the kit. 5 μL anti-cAMP cryptate was added to all wells of the assay plate, and 5 μL cAMP-d2 added to all wells except non-specific binding (NSB) wells, to which conjugate and lysis buffer was added.

For another data set, the target named is Human GLP1R (Homo sapiens, UniProt P43220). Nature of the data set: cAMP activity assay (assay 1) in assay medium. Format: cell-based. Conditions: Table 4, additional peptides, read-out: hGLP1R EC50.
Sequence of Human GLP1R (P43220 24-463): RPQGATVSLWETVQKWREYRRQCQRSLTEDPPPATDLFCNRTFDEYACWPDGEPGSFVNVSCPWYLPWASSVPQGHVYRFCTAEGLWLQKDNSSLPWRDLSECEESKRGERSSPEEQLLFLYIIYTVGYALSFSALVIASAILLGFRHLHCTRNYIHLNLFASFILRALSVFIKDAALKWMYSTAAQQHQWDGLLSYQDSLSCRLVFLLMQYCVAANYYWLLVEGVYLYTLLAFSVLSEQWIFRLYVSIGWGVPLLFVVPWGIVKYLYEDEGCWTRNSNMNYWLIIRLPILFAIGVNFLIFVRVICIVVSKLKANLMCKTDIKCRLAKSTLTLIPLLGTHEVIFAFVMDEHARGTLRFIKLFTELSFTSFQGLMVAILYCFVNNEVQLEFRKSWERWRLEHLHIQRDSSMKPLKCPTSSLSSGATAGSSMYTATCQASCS
Data set [3] can be described thus: frozen blank plasma from mouse. Conditions: 37° C., up to 48 hours.
Data set [4] concerns the target T2, Human GlucR. Description: cAMP assay in presence of serum albumin (assay 2), 4.4% human serum albumin. Conditions: relative potency GlucR / relative potency GLP1R vs native ligands. The class given is cell-based. The procedure: (§1) CHO cells with stable recombinant expression of the human, mouse or rat GlucR or GLP-t receptor were cultured in DMEM 10% FBS and geneticin (100 μg/mil). Cryopreserved cell stocks were prepared in 1× cell freezing medium-DMSO serum free (Sigma Aldrich) at 2×10^7/vial and stored at […]. […] Peptides were serially diluted in DMSO and then diluted 100 fold into DMEM containing serum albumin at stated final concentration. […] Cells were added to the assay plates and incubated for 30 min at room temperature. Following incubation the assay was stopped and cAMP levels measured using the HTRF® dynamic d2 cAMP assay kit available from CisBio Bioassays, as per the manufacturer's guidelines. Plates were read on Perkin Elmer ENVISION® fluorescence plate readers. Human and rat serum albumin were purchased from Sigma Aldrich and mouse serum albumin from Equitech Bio Ltd.
(In general: Cyclic AMP is a second messenger, typically raised through Gs and lowered through Gi signalling.)

In a further data set the target is T3, Mouse GlucR (Mus musculus, UniProt Q61606).
T3 construct: expressed in transfected cells
T3 sequence (Q61606 27-485): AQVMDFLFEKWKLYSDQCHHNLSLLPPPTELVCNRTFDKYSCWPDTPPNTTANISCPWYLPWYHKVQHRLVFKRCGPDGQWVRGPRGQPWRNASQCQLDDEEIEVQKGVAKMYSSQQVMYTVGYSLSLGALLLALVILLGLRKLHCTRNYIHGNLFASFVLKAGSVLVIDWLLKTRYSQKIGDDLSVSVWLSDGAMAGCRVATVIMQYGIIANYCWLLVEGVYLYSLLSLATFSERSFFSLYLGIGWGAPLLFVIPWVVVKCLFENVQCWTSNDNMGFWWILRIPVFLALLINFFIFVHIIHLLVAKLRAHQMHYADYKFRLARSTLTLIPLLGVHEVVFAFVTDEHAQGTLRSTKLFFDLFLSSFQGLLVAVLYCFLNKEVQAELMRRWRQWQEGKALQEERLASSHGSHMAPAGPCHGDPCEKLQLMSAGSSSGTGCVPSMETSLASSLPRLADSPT
Nature of the data set: cAMP assay in presence of serum albumin (assay 2), 3.2% mouse serum albumin. Format: cell-based. As to conditions: relative potencies vs native ligands. As to the method: as §1

Broadly, the EC50 is the concentration at which the effect is half-maximal.

Description for Human GIPr: as §2, §3, §4, §5
Description for Human GLP1R: as §2, §3, §4, §5

For the compound “HSQGTFTSDXSRYLDSRSARDFVAWLEAGG-amide X10 = K(gE-palm)”, the fragment found result in data set [1] is recorded as “DPP IV-cleavage product, 3% at 24 h”.
With `CCCCCCCCCCCCCCCC(=O)N[C@@H](CCC(=O)NCCCC[C@H](NC(=O)[C@H](Cc1ccc(O)cc1)NC(=O)[C@H](CCCCN)NC(=O)[C@H](CO)NC(=O)[C@H](Cc1ccc(O)cc1)NC(=O)[C@H](CC(=O)O)NC(=O)[C@H](CO)NC(=O)[C@@H](NC(=O)[C@H](Cc1ccccc1)NC(=O)[C@@H](NC(=O)CNC(=O)[C@H](CCC(N)=O)NC(=O)[C@H](CO)NC(=O)[C@@H](N)Cc1c[nH]cn1)[C@@H](C)O)[C@@H](C)O)C(=O)N[C@@H](CC(=O)O)C(=O)N[C@@H](CO)C(=O)N[C@@H](CCCNC(=N)N)C(=O)N[C@@H](CCCNC(=N)N)C(=O)N[C@@H](C)C(=O)N[C@@H](CCC(N)=O)C(=O)N[C@@H](CC(=O)O)C(=O)N[C@@H](Cc1ccccc1)C(=O)N[C@H](C(=O)N[C@@H](CCC(N)=O)C(=O)N[C@@H](Cc1c[nH]c2ccccc12)C(=O)N[C@@H](CC(C)C)C(=O)N[C@@H](CCC(=O)O)C(=O)N[C@@H](C)C(=O)NCC(=O)NCC(N)=O)C(C)C)C(=O)O` [g601] (H-HSQGTFTSDYSKYK([γGlu-Palmitoyl])DSRRAQDFVQWLEAGG-NH2; N-terminus assumed), the EC50 on Human GIPr turned out to be 0.0741 nM.
`CCCCCCCCCCCCCCCC(=O)N[C@@H](CCC(=O)NCCCC[C@H](NC(=O)[C@H](CCCCN)NC(=O)[C@H](CO)NC(=O)[C@H](Cc1ccc(O)cc1)NC(=O)[C@H](CC(=O)O)NC(=O)[C@H](CO)NC(=O)[C@@H](NC(=O)[C@H](Cc1ccccc1)NC(=O)[C@@H](NC(=O)CNC(=O)[C@H](CCC(N)=O)NC(=O)C(C)(C)NC(=O)[C@@H](N)Cc1c[nH]cn1)[C@@H](C)O)[C@@H](C)O)C(=O)N[C@@H](CC(C)C)C(=O)N[C@@H](CC(=O)O)C(=O)N[C@@H](CO)C(=O)N[C@@H](CCC(=O)O)C(=O)N[C@@H](CCCNC(=N)N)C(=O)N[C@@H](C)C(=O)N[C@@H](CCCNC(=N)N)C(=O)N[C@@H](CC(=O)O)C(=O)N[C@@H](Cc1ccccc1)C(=O)N[C@H](C(=O)N[C@@H](C)C(=O)N[C@@H](Cc1c[nH]c2ccccc12)C(=O)N[C@@H](CC(C)C)C(=O)N[C@H](C(=O)N[C@@H](C)C(=O)NCC(=O)NCC(N)=O)C(C)C)C(C)C)C(=O)O` [g87 ?]: the EC50 at Human GlucR [2] is 0.129 nM; at Human GLP1R, 0.0298 nM.
Turning to “HSQGTFTSDYSKXLDSERARDFVAWLVAGG-amide X13 = K(gE-palm)”, the fragment found entry is “DPP IV-cleavage product, 2% at 24 h” in data set [1]; “DPP IV-cleavage product, 14% at 24 h and +1 DPP cleaved product, 5% at 24 h” in data set [3].
Turning to `CCCCCCCCCCCCCCCC(=O)N[C@@H](CCC(=O)NCCCC[C@H](NC(=O)[C@H](CO)NC(=O)[C@H](CC(=O)O)NC(=O)[C@H](CC(C)C)NC(=O)[C@H](Cc1ccc(O)cc1)NC(=O)[C@H](CCCCN)NC(=O)[C@H](CO)NC(=O)[C@H](Cc1ccc(O)cc1)NC(=O)[C@H](CC(=O)O)NC(=O)[C@H](CO)NC(=O)[C@@H](NC(=O)[C@H](Cc1ccccc1)NC(=O)[C@@H](NC(=O)CNC(=O)[C@H](CCC(N)=O)NC(=O)CNC(=O)[C@@H](N)Cc1c[nH]cn1)[C@@H](C)O)[C@@H](C)O)C(=O)N[C@@H](CCCNC(=N)N)C(=O)N[C@@H](C)C(=O)N[C@@H](CCC(N)=O)C(=O)N[C@@H](CC(=O)O)C(=O)N[C@@H](Cc1ccccc1)C(=O)N[C@H](C(=O)N[C@@H](CCC(N)=O)C(=O)N[C@@H](Cc1c[nH]c2ccccc12)C(=O)N[C@@H](CC(C)C)C(=O)N[C@H](C(=O)N[C@@H](C)C(=O)NCC(=O)NCC(N)=O)C(C)C)C(C)C)C(=O)O` [Peptide G380], at Human GlucR [4], the “Human GlucR/GLP1R Ratio” value worked out at 0.013. At Mouse GlucR, the “Mouse GlucR/GLP1R Ratio” value came to 0.006.
For “HSQGTFTSDXSEYLDSERARDFVAWLEAGG-amide X10 = K(gE-palm)”, the fragment found result is reported as “DPP cleaved product, minor” in data set [1] and “DPP cleaved product, minor” in data set [3].
For `CC(C)C[C@H](NC(=O)[C@H](Cc1ccc(O)cc1)NC(=O)[C@H](CCCCN)NC(=O)[C@H](CO)NC(=O)[C@H](Cc1ccc(O)cc1)NC(=O)[C@H](CC(=O)O)NC(=O)[C@H](CO)NC(=O)[C@@H](NC(=O)[C@H](Cc1ccccc1)NC(=O)[C@@H](NC(=O)CNC(=O)[C@H](CCC(N)=O)NC(=O)[C@H](CO)NC(=O)[C@@H](N)Cc1c[nH]cn1)[C@@H](C)O)[C@@H](C)O)C(=O)N[C@@H](CC(=O)O)C(=O)N[C@@H](CO)C(=O)N[C@@H](CCCNC(=N)N)C(=O)N[C@@H](CCCNC(=N)N)C(=O)N[C@@H](C)C(=O)N[C@@H](CCC(N)=O)C(=O)N[C@@H](CC(=O)O)C(=O)N[C@@H](Cc1ccccc1)C(=O)N[C@H](C(=O)N[C@@H](CCC(N)=O)C(=O)N[C@@H](Cc1c[nH]c2ccccc12)C(=O)N[C@@H](CC(C)C)C(=O)N[C@H](C(=O)N[C@@H](C)C(=O)NCC(=O)NCC(=O)NCC(=O)NCC(=O)NCC(=O)NCC(=O)N[C@@H](CCCCN)C(N)=O)C(C)C)C(C)C` [g32 ?], the results for the EC50 on Human GlucR [2] and at Human GLP1R were 0.0103 nM and 0.0261 nM, respectively.
For `CCCCCCCCCCCCCCCC(=O)N[C@@H](CCC(=O)NCCCC[C@H](NC(=O)[C@H](CO)NC(=O)[C@H](CC(=O)O)NC(=O)[C@H](CC(C)C)NC(=O)[C@H](Cc1ccc(O)cc1)NC(=O)[C@H](CCCCN)NC(=O)[C@H](CO)NC(=O)[C@H](Cc1ccc(O)cc1)NC(=O)[C@H](CC(=O)O)NC(=O)[C@H](CO)NC(=O)[C@@H](NC(=O)[C@H](Cc1ccccc1)NC(=O)[C@@H](NC(=O)CNC(=O)[C@H](CCC(N)=O)NC(=O)CNC(=O)[C@@H](N)Cc1c[nH]cn1)[C@@H](C)O)[C@@H](C)O)C(=O)N[C@@H](CCCNC(=N)N)C(=O)N[C@@H](C)C(=O)N[C@@H](CCC(N)=O)C(=O)N[C@@H](CC(=O)O)C(=O)N[C@@H](Cc1ccccc1)C(=O)N[C@H](C(=O)N[C@@H](CCC(N)=O)C(=O)N[C@@H](Cc1c[nH]c2ccccc12)C(=O)N[C@@H](CC(C)C)C(=O)N[C@H](C(=O)N[C@@H](C)C(=O)NCC(=O)NCC(N)=O)C(C)C)C(C)C)C(=O)O` [g3 ? 0], in that order: 0.362 nM and 0.1 nM.
For the compound `CCCCCCCCCCCCCCCC(=O)N[C@@H](CCC(=O)NCCCC[C@H](NC(=O)[C@H](CO)NC(=O)[C@H](CC(=O)O)NC(=O)[C@H](CC(C)C)NC(=O)[C@H](Cc1ccc(O)cc1)NC(=O)[C@H](CCCCN)NC(=O)[C@H](CO)NC(=O)[C@H](Cc1ccc(O)cc1)NC(=O)[C@H](CC(=O)O)NC(=O)[C@H](CO)NC(=O)[C@@H](NC(=O)[C@H](Cc1ccccc1)NC(=O)[C@@H](NC(=O)CNC(=O)[C@H](CCC(N)=O)NC(=O)CNC(=O)[C@@H](N)Cc1c[nH]cn1)[C@@H](C)O)[C@@H](C)O)C(=O)N[C@@H](CCCNC(=N)N)C(=O)N[C@@H](C)C(=O)N[C@@H](CCCNC(=N)N)C(=O)N[C@@H](CC(=O)O)C(=O)N[C@@H](Cc1ccccc1)C(=O)N[C@H](C(=O)N[C@@H](CCC(=O)O)C(=O)N[C@@H](Cc1c[nH]c2ccccc12)C(=O)N[C@@H](CC(C)C)C(=O)N[C@H](C(=O)N[C@@H](C)C(=O)NCC(=O)NCC(N)=O)C(C)C)C(C)C)C(=O)O` [g660] (H-HGQGTFTSDYSKYLDSK([γGlu-Palmitoyl])RARDFVEWLVAGG-NH2; N-terminus assumed), the EC50 at Human GIPr came out at 3.32 nM.
